Experimental data: patent US7087588B2, “Nitric oxide donors capable of reducing toxicity from drugs” (Nicox S.A., priority 1996, dated 2006)
Marks after values point to notes of the source that are not given here.

Key:
[1] = Renal functionality and gastrointestinal tolerability in hypertensive rats after diclofenac, with or without DON-NO; assay type: in vivo, Sprague-Dawley male rats; conditions: spontaneously hypertensive rats, diclofenac 12 mg/kg i.p. daily, 5 days; nitroglycerin 3 mg/kg s.c.; vehicle = 100
guinea pigs = assay: Capsaicin induced bronchoconstriction in enalapril-treated guinea pigs; assay type: in vivo, guinea pig; conditions: enalapril 10 mg/kg and/or NO-naproxen 10 mg/kg intraduodenally, capsaicin 1 μg/kg i.v. 45 minutes later, vehicle = 100
Description: Capsaicin-induced bronchoconstriction in guinea pigs is an animal model related to the ability of angiotensin-converting-enzyme inhibitors to provoke cough in patients (Subissi et al, J. Cardiovasc. Pharmacol. 20/1, 139–146, 1992).
Experimental conditions were as previously described by Del Soldato et al (J. Pharmacological Methods 5, 279, 1981). Female guinea pigs weighing 300–400 g were anesthetized through intraperitoneal injection of sodiun 5,5 diethylbarbiturate (200 mg/kg) and kept under artificial respiration at constant positive pressure. Jugular right vein was incannuled for the administration of the compounds. Animals received intraduodenally enalapril (10 mg/kg), vehicle (carboxymethyl cellulose 2% by weight) and/or NO-naproxen (10 mg/kg). Forty-five minutes later, it was injected intravenously 0.1 ml capsaicin (1 μg/kg). Before and after capsaicin injection, tidal air changes were measured by means of modified Konzett apparatus connected to a polygraph amplifier.
Results were calculated as ratio of the responses obtained before and after the administration of each treatment, expressed as % of the vehicle (control) response and shown in Table 7.

[2] = test system: Cells of the human umbilical vein; assay: Nitric oxide generation by chemiluminescence, endothelial cells (method a); assay type: cell-based; conditions: incubation of 100 μmoles of NO donor, 5 minutes
Description: In particular the test relates to the generation of nitric oxide from the NO donors of the present invention, among which, for instance, nitroglycerine, nicorandil, nitro-prussiate, etc., when they are put in the presence of endothelial cells (method a), or platelets (method b). Cells of the human umbilical vein, spread on the plate, with density of 10^3 cells/plate were incubated with scalar concentrations of NO donor (1–100 μg/ml) for 5 minutes. The incubation medium (physiologic solvent, for instance Tyrode) was then analyzed to determine the capacity to generate NO, by means of: • 1) the determination of nitric oxide by chemiluminescence; • 2) the cGMP determination (cyclic GMP No. 2715 of the above mentioned Merck). […] The nitrites/nitrates present in the medium in these conditions are converted into NO which is then determined after its reaction with ozone, with consequent generation of light. As it usually occurs in the devices measuring chemiluminescence, the produced luminescence is directly proportional to the NO levels generated and can be measured by the suitable photomultiplier unit of a chemiluminescence analyser. The photomultiplier converts the incident light into electric voltage, which is then quantitatively recorded. […]

Washed human platelets = assay: Nitric oxide generation by chemiluminescence, platelets (method b); assay type: cell-based; conditions: incubation of 100 μmoles of NO donor, 5 minutes
Description: Washed human platelets, prepared analogously with what described by Radomski et al, (Br. J. Pharmacol. 92, 639–1987), were utilized. Aliquots of 0.4 ml were incubated with scalar concentrations of NO donors (1–100 μg/ml) for 5 minutes. The incubation medium (f.i. Tyrode) was then analysed to determine the capacity of generating NO, by determination of nitric oxide by chemiluminiscence and cGMP, with the modalities described in the previous paragraph, for the analyses carried out on the endothelial cells. As to the determination by chemiluminescence, also in this case, on the basis of a calibration curve, prepared with scalar concentrations of nitrite, it was possible to determine quantitatively the concentration of generated NO. For instance, after incubation of 100 μmoles of nicorandil, an amount equal to 35 μmoles of NO was generated.

rats = assay: Tolerance to nitroglycerin after repeated subcutaneous administration in rats; assay type: in vivo, rat; conditions: nitroglycerin given with enalapril, repeated subcutaneous administration 1 mg/kg per day

O=C(O)Cc1ccccc1Nc1c(Cl)cccc1Cl [DICLOFENAC, diclofenac]
BLOOD CREATININE, percent variation with respect to the control values [1]: 287* PERCENT

CCOC(=O)[C@H](CCc1ccccc1)N[C@@H](C)C(=O)N1CCC[C@H]1C(=O)O [enalapril]
BRONCHOCONSTRICTION (%), % of the vehicle (control) response (guinea pigs): 290%

O=C(NCCO[N+](=O)[O-])c1cccnc1 [nicorandil, N-[2-(nitrooxy)ethyl]-3-pyridine-carboxamide]
amount of NO generated [2]: about 10 μmoles | amount of NO generated (Washed human platelets): 35 µmol

O=[N+]([O-])OCC(CO[N+](=O)[O-])O[N+](=O)[O-] [nitroglycerin, 1,2,3 propanetriol trinitrate]
tolerance after repeated administration (rats): did not cause any tolerance
